From patent US12077503B2, “Substituted cyclic amides and their use as herbicides” (FMC CORPORATION, priority 2015, dated 2024)

How the values were obtained:
Assay type in all cases: in vivo
[1] = system: redroot pigweed (Amaranthus retroflexus); assay: Test G Post-Emergence Protocol; details: Amaranthus retroflexus, post-emergence, 312 h; for pest or weed control at 15.625 g/ha: 15.625 g ai/ha, evaluated after 13 days (100=total damage to plant; 0=no damage to plant), read-out: Pigweed, Redroot damage rating; for pest or weed control at 62.5 g/ha: 62.5 g ai/ha, read-out: Pigweed, Redroot damage rating (100=total damage to plant; 0=no damage to plant); for pest or weed control at 62.5 g/ha / pest or weed control at 250 g/ha: evaluated after 13 days; for pest or weed control at 250 g/ha: 250 g ai/ha, read-out: damage to plant, Pigweed, Redroot (100=total damage to plant; 0=no damage to plant)
Procedure, shortened: (§1)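 Scores run 0 (no damage) to 100 (total damage) and were taken 13 days after spraying. Plants had been raised in pots for 8 days under glasshouse control (24/16 °C, 14 h photoperiod, 65% humidity) and then treated at 15.625, 62.5 or 250 g/ha.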

[2] = system: giant foxtail (Setaria faberi); assay: Test G Post-Emergence Protocol; details: Setaria faberi, post-emergence, 312 h; for pest or weed control at 15.625 g/ha: 15.625 g ai/ha, evaluated after 13 days (100=total damage to plant; 0=no damage to plant), read-out: Foxtail, Giant damage rating; for pest or weed control at 62.5 g/ha: 62.5 g ai/ha, read-out: Foxtail, Giant damage rating (100=total damage to plant; 0=no damage to plant); for pest or weed control at 62.5 g/ha / pest or weed control at 250 g/ha: evaluated after 13 days; for pest or weed control at 250 g/ha: 250 g ai/ha, read-out: damage to plant, Foxtail, Giant (100=total damage to plant; 0=no damage to plant)
Procedure, shortened: as §1

[3] = system: corn (Zea mays); assay: Test G Post-Emergence Protocol; details: Zea mays, post-emergence, 312 h; for plant injury at 15.625 g/ha: 15.625 g ai/ha, evaluated after 13 days (100=total damage to plant; 0=no damage to plant), read-out: Corn damage rating; for plant injury at 62.5 g/ha: 62.5 g ai/ha, read-out: Corn damage rating (100=total damage to plant; 0=no damage to plant); for plant injury at 62.5 g/ha / plant injury at 250 g/ha: evaluated after 13 days; for plant injury at 250 g/ha: 250 g ai/ha, read-out: damage to plant, Corn (100=total damage to plant; 0=no damage to plant)
Procedure, shortened: as §1

[4] = system: ivy-leaved morning glory (Ipomoea hederacea); assay: Test G Post-Emergence Protocol; details: Ipomoea, post-emergence, 312 h; for pest or weed control at 15.625 g/ha: 15.625 g ai/ha, evaluated after 13 days (100=total damage to plant; 0=no damage to plant), read-out: Morningglory, Ivy-leaved damage rating; for pest or weed control at 62.5 g/ha: 62.5 g ai/ha, read-out: Morningglory, Ivy-leaved damage rating (100=total damage to plant; 0=no damage to plant); for pest or weed control at 62.5 g/ha / pest or weed control at 250 g/ha: evaluated after 13 days; for pest or weed control at 250 g/ha: 250 g ai/ha, read-out: damage to plant, Morningglory, Ivy-leaved (100=total damage to plant; 0=no damage to plant)
Procedure, shortened: as §1

[5] = system: barnyardgrass (Echinochloa crus-galli); assay: Test G Post-Emergence Protocol; details: Echinochloa crus-galli, post-emergence, 312 h; for pest or weed control at 15.625 g/ha: 15.625 g ai/ha, evaluated after 13 days (100=total damage to plant; 0=no damage to plant), read-out: Barnyardgrass damage rating; for pest or weed control at 62.5 g/ha: 62.5 g ai/ha, read-out: Barnyardgrass damage rating (100=total damage to plant; 0=no damage to plant); for pest or weed control at 62.5 g/ha / pest or weed control at 250 g/ha: evaluated after 13 days; for pest or weed control at 250 g/ha: 250 g ai/ha, read-out: damage to plant, Barnyardgrass (100=total damage to plant; 0=no damage to plant)
Procedure, shortened: as §1

[6] = system: velvetleaf (Abutilon theophrasti); assay: Test G Post-Emergence Protocol; details: Abutilon theophrasti, post-emergence, 312 h; for pest or weed control at 15.625 g/ha: 15.625 g ai/ha, evaluated after 13 days (100=total damage to plant; 0=no damage to plant), read-out: Velvetleaf damage rating; for pest or weed control at 62.5 g/ha: 62.5 g ai/ha, read-out: Velvetleaf damage rating (100=total damage to plant; 0=no damage to plant); for pest or weed control at 62.5 g/ha / pest or weed control at 250 g/ha: evaluated after 13 days; for pest or weed control at 250 g/ha: 250 g ai/ha, read-out: damage to plant, Velvetleaf (100=total damage to plant; 0=no damage to plant)
Procedure, shortened: as §1

[7] = system: redroot pigweed (Amaranthus retroflexus); assay: Test G Pre-Emergence Protocol; details: Amaranthus retroflexus, pre-emergence, 312 h, evaluated after 13 days; for pest or weed control at 15.625 g/ha: 15.625 g ai/ha; for pest or weed control at 15.625 g/ha / pest or weed control at 250 g/ha: read-out: Pigweed, Redroot damage rating (100=total damage to plant; 0=no damage to plant); for pest or weed control at 62.5 g/ha: 62.5 g ai/ha, 100=total damage to plant, 0=no damage to plant, read-out: plant damage rating, Pigweed, Redroot; for pest or weed control at 250 g/ha: 250 g ai/ha
Procedure, shortened: (§2)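 Spraying took place one day after sowing, at 15.625, 62.5 or 250 g/ha, using an acetone/water (50:50) spray solution containing 0.5% Tween 20. Plants were kept under glasshouse conditions (24/16 °C, 14 h light, 65% humidity, watered twice daily), and injury was rated 0–100 at day 13.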

[8] = system: giant foxtail (Setaria faberi); assay: Test G Pre-Emergence Protocol; details: Setaria faberi, pre-emergence, 312 h, evaluated after 13 days; for pest or weed control at 15.625 g/ha: 15.625 g ai/ha; for pest or weed control at 15.625 g/ha / pest or weed control at 250 g/ha: read-out: Foxtail, Giant damage rating (100=total damage to plant; 0=no damage to plant); for pest or weed control at 62.5 g/ha: 62.5 g ai/ha, 100=total damage to plant, 0=no damage to plant, read-out: plant damage rating, Foxtail, Giant; for pest or weed control at 250 g/ha: 250 g ai/ha
Procedure, shortened: as §2

[9] = system: corn (Zea mays); assay: Test G Pre-Emergence Protocol; details: Zea mays, pre-emergence, 312 h, evaluated after 13 days; for plant injury at 15.625 g/ha: 15.625 g ai/ha; for plant injury at 15.625 g/ha / plant injury at 250 g/ha: read-out: Corn damage rating (100=total damage to plant; 0=no damage to plant); for plant injury at 62.5 g/ha: 62.5 g ai/ha, 100=total damage to plant, 0=no damage to plant, read-out: plant damage rating, Corn; for plant injury at 250 g/ha: 250 g ai/ha
Procedure, shortened: as §2

[10] = system: ivy-leaved morning glory (Ipomoea hederacea); assay: Test G Pre-Emergence Protocol; details: Ipomoea, pre-emergence, 312 h, evaluated after 13 days; for pest or weed control at 15.625 g/ha: 15.625 g ai/ha, read-out: Morning-glory, Ivy-leaved damage rating (100=total damage to plant; 0=no damage to plant); for pest or weed control at 62.5 g/ha: 62.5 g ai/ha, 100=total damage to plant, 0=no damage to plant, read-out: plant damage rating, Morningglory, Ivy-leaved; for pest or weed control at 250 g/ha: 250 g ai/ha, read-out: Morningglory, Ivy-leaved damage rating (100=total damage to plant; 0=no damage to plant)
Procedure, shortened: as §2

[11] = system: barnyardgrass (Echinochloa crus-galli); assay: Test G Pre-Emergence Protocol; details: Echinochloa crus-galli, pre-emergence, 312 h, evaluated after 13 days; for pest or weed control at 15.625 g/ha: 15.625 g ai/ha, read-out: Barnyard grass damage rating (100=total damage to plant; 0=no damage to plant); for pest or weed control at 62.5 g/ha: 62.5 g ai/ha, 100=total damage to plant, 0=no damage to plant, read-out: plant damage rating, Barnyardgrass; for pest or weed control at 250 g/ha: 250 g ai/ha, read-out: Barnyardgrass damage rating (100=total damage to plant; 0=no damage to plant)
Procedure, shortened: as §2

[12] = system: velvetleaf (Abutilon theophrasti); assay: Test G Pre-Emergence Protocol; details: Abutilon theophrasti, pre-emergence, 312 h, evaluated after 13 days; for pest or weed control at 15.625 g/ha: 15.625 g ai/ha; for pest or weed control at 15.625 g/ha / pest or weed control at 250 g/ha: read-out: Velvetleaf damage rating (100=total damage to plant; 0=no damage to plant); for pest or weed control at 62.5 g/ha: 62.5 g ai/ha, 100=total damage to plant, 0=no damage to plant, read-out: plant damage rating, Velvetleaf; for pest or weed control at 250 g/ha: 250 g ai/ha
Procedure, shortened: as §2

Cc1cnc(NC(=O)[C@@H]2C(=O)N(C)C[C@H]2c2ccc(C(F)(F)F)cc2)nn1 (racemic) [Compound 1508]
0%: pest or weed control at 15.625 g/ha [1] | pest or weed control at 62.5 g/ha [1] | pest or weed control at 250 g/ha [1] | pest or weed control at 15.625 g/ha [2] | pest or weed control at 62.5 g/ha [2] | pest or weed control at 250 g/ha [2] | plant injury at 15.625 g/ha [3] | plant injury at 62.5 g/ha [3] | plant injury at 250 g/ha [3] | pest or weed control at 15.625 g/ha [4] | pest or weed control at 62.5 g/ha [4] | pest or weed control at 250 g/ha [4] | pest or weed control at 15.625 g/ha [5] | pest or weed control at 62.5 g/ha [5] | pest or weed control at 250 g/ha [5] | pest or weed control at 15.625 g/ha [6] | pest or weed control at 62.5 g/ha [6] | pest or weed control at 250 g/ha [6] | pest or weed control at 15.625 g/ha [7] | pest or weed control at 62.5 g/ha [7] | pest or weed control at 250 g/ha [7] | pest or weed control at 15.625 g/ha [8] | pest or weed control at 62.5 g/ha [8] | pest or weed control at 250 g/ha [8] | plant injury at 15.625 g/ha [9] | plant injury at 62.5 g/ha [9] | plant injury at 250 g/ha [9] | pest or weed control at 15.625 g/ha [10] | pest or weed control at 62.5 g/ha [10] | pest or weed control at 250 g/ha [10] | pest or weed control at 15.625 g/ha [11] | pest or weed control at 62.5 g/ha [11] | pest or weed control at 250 g/ha [11] | pest or weed control at 15.625 g/ha [12] | pest or weed control at 62.5 g/ha [12] | pest or weed control at 250 g/ha [12]

CN1C[C@@H](c2ccc(C(F)(F)F)cc2)[C@H](C(=O)Nc2ccnnc2)C1=O (racemic) [Compound 1518]
0%: pest or weed control at 15.625 g/ha [1] | pest or weed control at 62.5 g/ha [1] | pest or weed control at 250 g/ha [1] | pest or weed control at 15.625 g/ha [2] | pest or weed control at 62.5 g/ha [2] | pest or weed control at 250 g/ha [2] | plant injury at 15.625 g/ha [3] | plant injury at 62.5 g/ha [3] | plant injury at 250 g/ha [3] | pest or weed control at 15.625 g/ha [4] | pest or weed control at 62.5 g/ha [4] | pest or weed control at 250 g/ha [4] | pest or weed control at 15.625 g/ha [5] | pest or weed control at 62.5 g/ha [5] | pest or weed control at 250 g/ha [5] | pest or weed control at 15.625 g/ha [6] | pest or weed control at 62.5 g/ha [6] | pest or weed control at 250 g/ha [6] | pest or weed control at 15.625 g/ha [7] | pest or weed control at 62.5 g/ha [7] | pest or weed control at 250 g/ha [7] | pest or weed control at 15.625 g/ha [8] | pest or weed control at 62.5 g/ha [8] | pest or weed control at 250 g/ha [8] | plant injury at 15.625 g/ha [9] | plant injury at 62.5 g/ha [9] | plant injury at 250 g/ha [9] | pest or weed control at 15.625 g/ha [10] | pest or weed control at 62.5 g/ha [10] | pest or weed control at 250 g/ha [10] | pest or weed control at 15.625 g/ha [11] | pest or weed control at 62.5 g/ha [11] | pest or weed control at 250 g/ha [11] | pest or weed control at 15.625 g/ha [12] | pest or weed control at 62.5 g/ha [12] | pest or weed control at 250 g/ha [12]
